{"source": "patent US20230265068A1", "about": "“TRANSIENT RECEPTOR POTENTIAL CANONICAL 3 INHIBITORS AND METHODS OF USE THEREOF” (University of Tennessee Research Foundation, priority 2020, published 2023)", "key": {"[1]": {"system": "hippocampal neurons", "experiment": "toxicity of compound alone in hippocampal neuronal culture", "type": "cell-based, rat", "details": "compound alone at different concentrations", "experimental": "(§1) To explore the potential biological effects of compound 22 in a TRPC3 related disease model, its neuroprotective ability in primary cultured neurons (14 DIV prepared from E17 rats as described) was evaluated. The effects on neuron dendritic morphology were measured by imaging. Mature hippocampal neurons (DIV=14) were treated with CHO control medium, or naturally secreted Aβ-containing conditioned medium (7PA2), or in combination with compound 22 or Pyr3 at different concentrations, for 16 hours, followed by immunocytochemistry using an antibody against MAP2 and DAPI (data not shown). […] Hippocampal neurons (DIV=14) were treated with compound 22 or Pyr3 alone at different concentrations, followed by immunocytochemistry staining with MAP2 and DAPI (data not shown)."}, "[2]": {"experiment": "metabolic stability in human liver microsomes", "type": "in vitro ADME", "details": "human liver microsomes", "experimental": "(§2) The metabolic stability of compound 22 was tested prior to the next phase of in vivo study. […] The maximum tolerated dose (MTD) study was subsequently performed to investigate its in vivo toxicity (FIGS. 4A and 4B). The second major limitation of Pyr3 is its toxicity due to its alkylating tail moiety. While replacing only the fast-metabolizing head ester group in Pyr3 with a stable amide (compound 79) improved metabolic stability, a single IP injection of compound 79 at 200 mg/kg killed all mice within 24 h."}, "[3]": {"system": "hippocampal neurons", "experiment": "neuroprotection against Aβ-containing conditioned medium (7PA2) in primary hippocampal neurons", "type": "cell-based, rat", "details": "14 DIV neurons, 7PA2 medium, 16 hours, different concentrations", "experimental": "To visualize dendritic spines, 14 DIV hippocampal neurons at low density (5,000 cells per 35 mm dish) were exposed to 7PA2 conditioned media (CM), which contains naturally secreted Aβ, or CHO control media or for 16 h, with or without cotreatment with the two inhibitor compounds, followed by immunocytochemistry with MAP2 and DAPI counterstaining.\nas §1"}, "[4]": {"target": "T1, TRPC3 (Homo sapiens, UniProt Q13507)", "T1 sequence (Q13507 1-921)": "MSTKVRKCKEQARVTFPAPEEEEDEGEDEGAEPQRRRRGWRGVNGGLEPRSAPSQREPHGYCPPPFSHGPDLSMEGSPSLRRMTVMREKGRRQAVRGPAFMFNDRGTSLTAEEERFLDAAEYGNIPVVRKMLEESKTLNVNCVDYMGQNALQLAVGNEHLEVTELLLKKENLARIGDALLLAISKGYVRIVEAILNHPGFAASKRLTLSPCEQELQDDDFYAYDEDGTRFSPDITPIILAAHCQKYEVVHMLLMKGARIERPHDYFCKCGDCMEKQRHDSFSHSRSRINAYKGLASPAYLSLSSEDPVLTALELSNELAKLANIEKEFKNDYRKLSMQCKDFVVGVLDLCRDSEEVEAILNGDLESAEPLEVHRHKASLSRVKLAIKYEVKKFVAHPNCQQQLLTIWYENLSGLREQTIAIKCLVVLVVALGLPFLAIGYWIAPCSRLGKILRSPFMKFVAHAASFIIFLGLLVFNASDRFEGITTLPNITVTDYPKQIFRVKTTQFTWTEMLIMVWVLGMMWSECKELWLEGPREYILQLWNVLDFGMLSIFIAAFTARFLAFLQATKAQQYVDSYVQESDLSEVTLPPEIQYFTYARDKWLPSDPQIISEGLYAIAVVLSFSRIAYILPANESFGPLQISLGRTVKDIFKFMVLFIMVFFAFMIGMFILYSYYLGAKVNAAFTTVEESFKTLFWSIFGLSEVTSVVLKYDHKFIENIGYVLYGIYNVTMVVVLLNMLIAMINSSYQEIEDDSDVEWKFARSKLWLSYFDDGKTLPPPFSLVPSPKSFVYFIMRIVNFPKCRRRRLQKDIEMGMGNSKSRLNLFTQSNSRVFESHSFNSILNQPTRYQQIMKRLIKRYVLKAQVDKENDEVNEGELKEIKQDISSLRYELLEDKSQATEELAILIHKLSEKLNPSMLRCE", "details": "literature ref 20; read-out: reported IC50 for suppression of TRPC3; cited from earlier work"}, "[5]": {"target": "T1, TRPC3", "experiment": "whole-cell patch clamp of HEK293 cells transfected with hTRPC3, currents activated by GSK1702934A", "type": "cell-based", "parameters": "expressed in transfected cells; host or cells: HEK293 (CRL-1573), transient transfection, pMO vector", "experimental": "Human embryonic kidney 293 (HEK293; catalog number CRL-1573) cells were cultured in Dulbecco's modified Eagle's medium (Invitrogen) supplemented with 10% fetal bovine serum and 1% penicillin-streptomycin at 37° C. and 5% CO2. Constructs cloned in pMO (a pcDNA3-modified vector) were co-transfected with GFP-pMO, using Lipofectamine 2000 (Invitrogen) according to the manufacturer's instructions. Macroscopic currents in the whole-cell patch clamp configuration were recorded 18-24 h post-transfection. The extracellular solution contained 140 mM NaCl, 6 mM KCl, 2 mM MgCl2, 10 mM HEPES, and 10 mM glucose (pH 7.4). Pipettes were made of borosilicate glass (outer diameter, 1.5 mm; inner diameter, 1.10 mm; Sutter Instruments) and fire-polished with a resistance between 2.8 and 4.0 megaohms when filled with an intracellular solution that contained 140 mM CsCl, 5 mM EGTA, and 10 mM HEPES, pH 7.2. Currents were recorded with a Multiclamp 700B amplifier (Molecular Devices) using a 1-s ramp from −100 to 100 mV. Agonist and antagonists perfused were dissolved in the bath solution prior experiments: TRP channel agonists Allyl isothiocyanate (AITC; TRPA1), capsaicin (TRPV1), and menthol (TRPM8) were obtained from Sigma, GSK1016790A (TRPV4) from Cayman chemicals, and GSK1702934A (TRPC3, TRPC6 and TRPC7) from Tocris Bioscience. Antagonist Pyr3 was obtained from Tocris Bioscience, all other antagonists were synthesized in house. Data were acquired with a sampling rate of 20 kHz, low-pass filtered (10 kHz), and analyzed offline using Clampfit v10.4.2.0 (Molecular Devices).\nElectrophysiology results were expressed as means±SD. Data were plotted, and sigmoidal fitting was done using OriginPro (from OriginLab), with the following Boltzmann function:\nUsing the patch clamp technique in the whole-cell configuration, compounds were screened by challenging hTRPC3 overexpressing HEK293 cells with GSK1702934A to activate TRPC3 and each of the synthesized compounds (10 μM) individually in the presence of the agonist.\nTo avoid tachyphylaxis and determine the IC50 of compound 22, each point of the dose response curve (FIG. 1B) was done individually on a cell and exchanging coverslips between cells. […] FIGS. 1D-1I show the inhibition of TRPC3-mediated currents by compound 22 and Pyr3 (serving as the reference control). […] Similar results were obtained when OAG was used as the agonist (data not shown)."}, "[6]": {"experiment": "metabolic stability in mouse liver microsomes", "type": "in vitro ADME", "details": "mouse liver microsomes", "experimental": "as §2"}, "[7]": {"experiment": "metabolic stability in rat liver microsomes", "type": "in vitro ADME", "details": "rat liver microsomes", "experimental": "as §2"}}, "note": "Like-named read-outs stand apart in the source and are kept apart here.", "data": [{"smiles": "CCOC(=O)c1cnn(-c2ccc(NC(=O)C(Cl)=C(Cl)Cl)cc2)c1C(F)(F)F", "note": "[Pyr3, reference compound]", "values": [{"measurement": "toxicity in neuronal culture", "setting": "[1]", "value": "lack of toxicity"}, {"measurement": "half-life time", "setting": "[2]", "value": "less than 15 minutes"}, {"measurement": "protection against Aβ-induced damage to dendrites (MAP2/DAPI)", "setting": "[3]", "value": "protect against Aβ-induced damage to dendrites"}, {"measurement": "IC50", "setting": "[4]", "value": 700, "unit": "nM"}, {"measurement": "hTRPC3 % Inhibition at 10 μM (mean ± SEM)", "setting": "[5]; 10 μM compound in presence of agonist GSK1702934A, HEK293 whole-cell peak current", "value": "91.72 ± 0.53", "unit": "%"}, {"measurement": "IC50", "setting": "[5]; agonist GSK1702934A, HEK293 whole-cell patch clamp, read-out: hTRPC3 IC50 (μM, mean ± SEM)", "value": "0.53 ± 0.05", "unit": "µM"}, {"measurement": "half-life time", "setting": "[6]", "value": "less than 15 minutes"}, {"measurement": "half-life time", "setting": "[7]", "value": "less than 15 minutes"}]}]}
